Reference: patent US20260055080A1, “NOVEL SUBSTITUTED QUINOLINE AND TETRAHYDRONAPHTHALENE CARBOXYLIC ACID DERIVATIVES AND THERAPEUTIC USES THEREOF” (SANOFI, priority 2022, published 2026)

Target: T1, ERα (Homo sapiens, UniProt P03372)
T1 construct: measured to determine the levels of ERα and DNA respectively; host or cells: MCF7
T1 sequence (P03372 1-595): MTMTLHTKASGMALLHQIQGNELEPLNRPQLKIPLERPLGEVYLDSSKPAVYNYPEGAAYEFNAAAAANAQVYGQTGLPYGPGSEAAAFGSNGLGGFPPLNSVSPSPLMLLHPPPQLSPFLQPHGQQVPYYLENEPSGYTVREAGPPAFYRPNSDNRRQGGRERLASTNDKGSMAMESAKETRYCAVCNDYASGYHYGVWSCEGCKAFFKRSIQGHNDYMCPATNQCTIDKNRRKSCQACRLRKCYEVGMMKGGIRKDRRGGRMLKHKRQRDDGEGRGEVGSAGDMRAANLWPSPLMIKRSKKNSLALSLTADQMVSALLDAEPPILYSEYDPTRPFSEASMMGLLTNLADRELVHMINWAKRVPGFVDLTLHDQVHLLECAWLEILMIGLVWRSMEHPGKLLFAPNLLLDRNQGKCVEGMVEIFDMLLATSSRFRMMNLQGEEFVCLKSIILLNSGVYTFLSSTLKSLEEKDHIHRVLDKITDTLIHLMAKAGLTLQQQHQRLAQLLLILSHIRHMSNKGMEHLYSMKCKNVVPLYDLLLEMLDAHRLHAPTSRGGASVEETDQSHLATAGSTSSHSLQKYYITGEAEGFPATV
Experiment: Estrogen receptor degradation activity: breast cancer cell ERα in cell western assay
Format: cell-based
Settings: MCF7 cells; for % Degradation At 0.3 μM: 4 hours, relative to fulvestrant 0.1 μM positive control; for DC50: 4 hours post compound addition, concentration which degrades 50% of the estrogen receptor, read-out: Degradation IC50
Method: Test: Estrogen Receptor Degradation Activity
Said test involves measuring the in vitro degradation activity of the compounds of the Table 1.
The measurements of the degradation activities were made using a breast cancer cell ERα in cell western assay as described hereunder.
MCF7 cells (ATCC) were seeded in 384 wells microplate (collagen coated) at a concentration of 10000 cells/30 μL per well in red phenol free MEM alpha medium (invitrogen) containing 5% charcoal dextran striped FBS. The following day, 9 points serial 1:5 dilution of each compound was added to the cells in 2.5 μL at final concentrations ranging from 0.3-0.0000018 μM (in Table 2), or 0.1 μM for fulvestrant (using as positive control). At 4 hours post compound addition the cells were fixed by adding 25 μL of formalin (final concentration 5% formalin containing 0.1% triton) for 10 minutes at room temperature and then washed twice with PBS. Then, 50 μL of LI-COR blocking buffer containing 0.1% Triton was added to plate for 30 minutes at room temperature. LI-COR blocking buffer was removed and cells were incubated overnight at cold room with 50 μL anti-ER rabbit monoclonal antibody (Thermo scientific MA1-39540) diluted at 1:1000 in LI-COR blocking buffer containing 0.1% tween-20. Wells which were treated with blocking buffer but no antibody were used as background control. Wells were washed twice with PBS (0.1% tween-20) and incubated at 37° C. for 60 minutes in LI-COR (0.1% tween-20) containing goat anti-rabbit antibody Alexa 488 (1:1000) and Syto-64 a DNA dye (2 μM final concentration). Cells were then washed 3 times in PBS and scanned in ACUMEN explorer (TTP-Labtech). Integrated intensities in the green fluorescence and red fluorescence were measured to determine the levels of ERα and DNA respectively.
The degradation activity with respect to estrogen receptors in this test is given by the concentration which degrades 50% of the estrogen receptor (or IC50) in nM.
The % of ERα levels decrease were determined as follows: % inhibition=100*(1-(sample-fulvestrant: DMSO-fulvestrant)).

Row | SMILES | % Degradation At 0.3 μM [%] | DC50 [nM]
1 | O=C(O)c1ccc2c(C(=O)c3ccc(OC4CN(CCCF)C4)cc3)c(-c3ccc(C(F)(F)F)cc3F)cnc2c1 [Compound 1] | 51 | 136
2 | O=C(O)c1ccc2c(C(=O)c3ccc(OCCN4CC(CF)C4)cc3)c(-c3ccc(C(F)(F)F)cc3F)cnc2c1 [Compound 2, 3-(2-fluoro-4-(trifluoromethyl)phenyl)-4-(4-(2-(3-(fluoromethyl)azetidin-1-yl)ethoxy)benzoyl)quinoline-7-carboxylic acid] | 62 | 196
3 | CCNCCc1ccc(CN(CC)c2cc(OC)ccc2[C@@H]2CCc3cc(C(=O)O)ccc3C2)cc1 [Compound 3, (R)-6-(2-(ethyl(4-(2-(ethylamino)ethyl)benzyl)amino)-4-methoxyphenyl)-5,6,7,8-tetrahydronaphthalene-2-carboxylic acid] | 49 | 252
